# Source: ChEMBL document CHEMBL1201862, “PubChem BioAssay data set” (2004)
# Structures can show the parent of a compound that is named as a salt. Activity calls are given as the source filed them.
# Experiments:
# [1] = M. tuberculosis H37Rv growth inhibitors, H37Rv strain (AID 1626); type: functional
# [2] = Luminescence Cell-Based Dose Response HTS to Identify Inhibitors of 5'UTR Stem-Loop Driven Prion Protein mRNA Translation in H4 Neuroglioblastoma Cells. [Related pubchem assays: 1827 (Project Summary), 1813 (Primary HTS)]; type: functional
# [3] = luciferase reporter signal suppression in cells – H4 neuroglioma cells, luminescence, dose response (AID 1990); type: functional, cell-based
# [4] = alpha-synuclein stem-loop luciferase translation blockers – H4 neuroglioma cells, luminescence, confirmation (AID 1988); type: functional, cell-based
# [5] = test system: Vero; experiment: cells; type: functional; conditions: Chlorocebus sabaeus
# [6] = test system: INS1; experiment: INS-1E survival protection against cytokine death – cell-based, luminescence, retest, dose response (AID 449756); type: functional; conditions: Rattus norvegicus;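 further: cell death triggered by IL-1 beta plus TNF-alpha plus IFN-gamma mixture; protective hits raise ATP signal compared with cytokine alone wells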
# [7] = HIV-1 AD8 envelope cell-cell fusion blockers – cherry-pick, dose response (AID 652062); type: functional, cell-based;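 further: luciferase signal from cell-cell fusion driven by HIV-1 clade B AD8 Env; potency is for inhibitors of fusion seen as a drop in luminescence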
# [8] = test system: Escherichia coli; experiment: microbe, parasite or virus in culture
# [9] = molecular target: T1, Fatty acid synthase (Homo sapiens, UniProt P49327); experiment: inhibition of human FAS-TE enzyme activity – biochemical, endpoint fluorescence intensity, uHTS hits, dose response (AID 624327); type: functional;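 further: fluorescence from hydrolysis of an O-methyl fluorescein acyl ester substrate by the enzyme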
# T1 sequence (P49327 whole entry): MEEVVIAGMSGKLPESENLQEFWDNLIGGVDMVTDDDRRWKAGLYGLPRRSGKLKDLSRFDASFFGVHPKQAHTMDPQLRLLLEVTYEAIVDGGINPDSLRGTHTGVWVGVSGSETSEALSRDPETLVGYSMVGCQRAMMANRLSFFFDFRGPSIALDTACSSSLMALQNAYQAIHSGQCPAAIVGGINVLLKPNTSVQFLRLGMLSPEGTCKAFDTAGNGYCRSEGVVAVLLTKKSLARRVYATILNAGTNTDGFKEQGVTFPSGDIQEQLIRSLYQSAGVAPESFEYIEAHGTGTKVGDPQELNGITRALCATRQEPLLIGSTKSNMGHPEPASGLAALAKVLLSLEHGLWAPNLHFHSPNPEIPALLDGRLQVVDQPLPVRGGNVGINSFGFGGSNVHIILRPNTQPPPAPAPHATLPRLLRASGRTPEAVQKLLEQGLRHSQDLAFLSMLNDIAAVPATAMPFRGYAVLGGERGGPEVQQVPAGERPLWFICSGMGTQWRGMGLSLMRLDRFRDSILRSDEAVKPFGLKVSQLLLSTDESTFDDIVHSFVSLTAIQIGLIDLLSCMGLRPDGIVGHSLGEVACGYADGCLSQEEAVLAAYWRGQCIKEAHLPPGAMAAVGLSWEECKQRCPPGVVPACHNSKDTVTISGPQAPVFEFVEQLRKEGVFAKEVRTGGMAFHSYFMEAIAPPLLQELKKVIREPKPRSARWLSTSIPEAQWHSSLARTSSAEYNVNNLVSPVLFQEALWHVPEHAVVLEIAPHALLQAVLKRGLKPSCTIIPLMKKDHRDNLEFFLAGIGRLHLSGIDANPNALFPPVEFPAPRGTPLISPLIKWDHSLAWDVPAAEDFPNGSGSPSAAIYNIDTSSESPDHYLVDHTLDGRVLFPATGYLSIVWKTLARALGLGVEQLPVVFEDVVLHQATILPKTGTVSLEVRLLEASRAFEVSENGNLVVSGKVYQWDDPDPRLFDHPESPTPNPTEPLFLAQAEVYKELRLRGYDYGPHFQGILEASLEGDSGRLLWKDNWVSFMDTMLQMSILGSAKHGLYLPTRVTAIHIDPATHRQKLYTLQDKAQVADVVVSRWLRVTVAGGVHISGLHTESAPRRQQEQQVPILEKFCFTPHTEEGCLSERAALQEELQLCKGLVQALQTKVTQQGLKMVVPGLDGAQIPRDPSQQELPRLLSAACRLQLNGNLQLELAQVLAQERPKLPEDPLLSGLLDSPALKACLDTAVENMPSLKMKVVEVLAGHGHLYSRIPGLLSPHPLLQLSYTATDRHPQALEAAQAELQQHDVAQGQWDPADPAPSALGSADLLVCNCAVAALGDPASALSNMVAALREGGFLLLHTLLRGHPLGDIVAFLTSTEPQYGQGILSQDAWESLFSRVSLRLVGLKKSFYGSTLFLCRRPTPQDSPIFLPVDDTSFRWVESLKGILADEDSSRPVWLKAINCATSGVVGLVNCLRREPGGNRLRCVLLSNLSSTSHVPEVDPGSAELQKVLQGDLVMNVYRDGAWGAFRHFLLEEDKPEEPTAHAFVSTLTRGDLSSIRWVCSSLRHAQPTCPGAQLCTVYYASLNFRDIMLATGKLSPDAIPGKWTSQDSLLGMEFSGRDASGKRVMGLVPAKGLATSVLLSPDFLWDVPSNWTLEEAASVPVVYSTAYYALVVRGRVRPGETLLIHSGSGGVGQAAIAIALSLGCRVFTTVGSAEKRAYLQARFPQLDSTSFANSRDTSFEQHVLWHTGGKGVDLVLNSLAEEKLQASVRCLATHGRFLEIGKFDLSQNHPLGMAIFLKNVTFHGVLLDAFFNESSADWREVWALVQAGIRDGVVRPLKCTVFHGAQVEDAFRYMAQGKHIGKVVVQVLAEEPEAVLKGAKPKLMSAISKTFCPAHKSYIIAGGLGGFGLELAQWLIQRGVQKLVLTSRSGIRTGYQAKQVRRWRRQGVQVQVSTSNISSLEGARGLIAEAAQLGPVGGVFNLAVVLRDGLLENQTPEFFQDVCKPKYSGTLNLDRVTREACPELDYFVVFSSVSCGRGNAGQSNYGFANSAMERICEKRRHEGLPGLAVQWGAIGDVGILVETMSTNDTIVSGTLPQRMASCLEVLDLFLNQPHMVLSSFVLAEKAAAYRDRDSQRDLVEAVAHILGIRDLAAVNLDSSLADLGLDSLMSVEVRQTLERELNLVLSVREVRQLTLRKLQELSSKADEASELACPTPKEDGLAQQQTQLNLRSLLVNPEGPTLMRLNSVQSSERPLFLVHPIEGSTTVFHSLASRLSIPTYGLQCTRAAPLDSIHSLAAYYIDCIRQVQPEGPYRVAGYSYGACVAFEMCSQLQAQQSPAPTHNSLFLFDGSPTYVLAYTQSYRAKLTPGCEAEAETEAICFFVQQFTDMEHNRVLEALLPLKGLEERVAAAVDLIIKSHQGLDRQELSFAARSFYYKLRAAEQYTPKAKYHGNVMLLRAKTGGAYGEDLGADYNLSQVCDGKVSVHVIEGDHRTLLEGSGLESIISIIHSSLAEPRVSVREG
# [10] = molecular target: T1, Fatty acid synthase; experiment: inhibition of human FAS-TE enzyme activity – biochemical, kinetic fluorescence intensity, dose response (AID 624326); type: functional;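 further: rate of fluorescence rise from hydrolysis of a fluorogenic O-methyl fluorescein ester substrate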
# [11] = molecular target: T2, Calpain-2 catalytic subunit (Sus scrofa, UniProt P43367); experiment: m-calpain protease blockers, concentration series – biochemical, fluorogenic peptide substrate, dose response (AID 1420); type: functional
# T2 sequence (P43367 whole entry): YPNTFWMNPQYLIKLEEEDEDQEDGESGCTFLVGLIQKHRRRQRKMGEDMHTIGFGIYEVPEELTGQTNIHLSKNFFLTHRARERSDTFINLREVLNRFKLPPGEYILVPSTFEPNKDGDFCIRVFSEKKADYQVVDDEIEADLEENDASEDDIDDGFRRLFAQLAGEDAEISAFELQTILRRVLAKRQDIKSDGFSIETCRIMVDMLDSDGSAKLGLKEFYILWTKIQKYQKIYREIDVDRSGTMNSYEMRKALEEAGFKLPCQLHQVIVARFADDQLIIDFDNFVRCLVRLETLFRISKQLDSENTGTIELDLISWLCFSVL
# [12] = molecular target: T3, Carboxy-terminal domain RNA polymerase II polypeptide A small phosphatase 1 (Homo sapiens, UniProt Q9GZU7); experiment: CTDSP1 inhibitors, concentration-response, biochemical, absorbance readout, ultra-high-throughput screen actives (AID 540297); type: functional
# T3 sequence (Q9GZU7 whole entry): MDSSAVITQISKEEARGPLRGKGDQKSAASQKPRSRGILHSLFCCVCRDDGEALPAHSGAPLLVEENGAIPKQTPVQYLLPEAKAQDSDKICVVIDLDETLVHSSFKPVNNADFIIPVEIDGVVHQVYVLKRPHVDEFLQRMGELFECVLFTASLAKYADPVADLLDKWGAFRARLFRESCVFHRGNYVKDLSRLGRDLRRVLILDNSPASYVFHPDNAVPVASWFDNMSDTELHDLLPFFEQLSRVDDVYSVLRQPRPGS
# [13] = molecular target: T4, Cytochrome P450 1A2 (Homo sapiens, UniProt P05177);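 further: PubChem cytochrome P450 panel assay, CYP1A2 panel member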
# T4 sequence (P05177 whole entry): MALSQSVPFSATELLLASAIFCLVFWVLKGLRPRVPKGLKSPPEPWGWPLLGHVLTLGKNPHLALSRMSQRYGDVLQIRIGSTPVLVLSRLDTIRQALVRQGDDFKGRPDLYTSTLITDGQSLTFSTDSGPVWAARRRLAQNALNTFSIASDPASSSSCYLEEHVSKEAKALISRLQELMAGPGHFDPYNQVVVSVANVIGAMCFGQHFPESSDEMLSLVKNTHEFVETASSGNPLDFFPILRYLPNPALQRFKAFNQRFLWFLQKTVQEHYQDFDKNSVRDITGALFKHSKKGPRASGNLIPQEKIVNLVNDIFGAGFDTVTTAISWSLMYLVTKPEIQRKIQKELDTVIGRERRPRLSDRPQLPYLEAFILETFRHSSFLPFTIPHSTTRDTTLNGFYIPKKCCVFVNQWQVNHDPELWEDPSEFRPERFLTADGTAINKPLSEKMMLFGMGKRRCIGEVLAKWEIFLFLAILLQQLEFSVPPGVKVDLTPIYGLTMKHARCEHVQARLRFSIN
# [14] = molecular target: Cytochrome P450 2C9 (Homo sapiens, UniProt P11712)
# Cytochrome P450 2C9, sequence (P11712 whole entry): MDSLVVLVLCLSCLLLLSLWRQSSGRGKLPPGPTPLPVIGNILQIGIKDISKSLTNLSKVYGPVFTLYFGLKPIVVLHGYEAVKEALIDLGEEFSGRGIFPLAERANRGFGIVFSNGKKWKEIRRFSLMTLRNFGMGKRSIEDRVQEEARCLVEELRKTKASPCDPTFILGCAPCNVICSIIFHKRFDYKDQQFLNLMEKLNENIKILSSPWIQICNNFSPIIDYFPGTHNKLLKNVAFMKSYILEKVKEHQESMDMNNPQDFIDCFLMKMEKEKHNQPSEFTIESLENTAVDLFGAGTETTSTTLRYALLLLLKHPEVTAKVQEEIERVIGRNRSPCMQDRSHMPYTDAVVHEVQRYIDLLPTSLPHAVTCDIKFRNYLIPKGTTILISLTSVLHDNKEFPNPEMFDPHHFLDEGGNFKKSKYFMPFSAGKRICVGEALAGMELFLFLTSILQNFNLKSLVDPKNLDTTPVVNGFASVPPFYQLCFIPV
# [15] = molecular target: Cytochrome P450 2D6 (Homo sapiens, UniProt P10635);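 further: CYP2D6 member of a cytochrome P450 panel assay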
# Cytochrome P450 2D6, sequence (P10635 whole entry): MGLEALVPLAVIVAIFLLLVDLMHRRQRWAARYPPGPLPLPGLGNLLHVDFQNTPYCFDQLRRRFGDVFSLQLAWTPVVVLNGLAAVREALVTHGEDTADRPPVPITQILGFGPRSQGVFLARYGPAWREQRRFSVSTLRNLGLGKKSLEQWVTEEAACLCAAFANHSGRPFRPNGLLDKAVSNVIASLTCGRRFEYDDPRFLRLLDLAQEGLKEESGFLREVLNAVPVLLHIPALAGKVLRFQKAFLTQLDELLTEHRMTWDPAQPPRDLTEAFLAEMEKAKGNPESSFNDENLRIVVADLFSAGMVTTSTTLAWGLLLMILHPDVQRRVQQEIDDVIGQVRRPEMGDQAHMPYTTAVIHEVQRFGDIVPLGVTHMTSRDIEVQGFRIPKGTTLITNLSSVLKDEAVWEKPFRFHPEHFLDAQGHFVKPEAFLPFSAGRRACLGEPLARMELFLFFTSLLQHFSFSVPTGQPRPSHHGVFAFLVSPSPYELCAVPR
# [16] = molecular target: DNA dC->dU-editing enzyme APOBEC-3G (Homo sapiens, UniProt Q9HC16); type: functional;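 further: Dose-response counterscreen measuring inhibition of APOBEC3G DNA deaminase activity, run while confirming APOBEC3A inhibitors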
# DNA dC->dU-editing enzyme APOBEC-3G, sequence (Q9HC16 whole entry): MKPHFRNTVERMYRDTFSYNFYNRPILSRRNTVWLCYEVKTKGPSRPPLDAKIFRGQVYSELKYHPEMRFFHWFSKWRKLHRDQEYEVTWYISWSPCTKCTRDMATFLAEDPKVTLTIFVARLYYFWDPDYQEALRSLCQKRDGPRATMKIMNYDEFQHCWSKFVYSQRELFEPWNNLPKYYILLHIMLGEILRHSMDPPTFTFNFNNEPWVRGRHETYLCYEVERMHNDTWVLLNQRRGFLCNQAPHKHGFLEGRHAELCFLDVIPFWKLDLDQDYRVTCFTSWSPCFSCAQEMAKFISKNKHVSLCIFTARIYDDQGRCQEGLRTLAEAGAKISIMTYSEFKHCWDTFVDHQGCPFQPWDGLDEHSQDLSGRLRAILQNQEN
# [17] = molecular target: DNA dC->dU-editing enzyme APOBEC-3A (Homo sapiens, UniProt P31941); experiment: Dose Response confirmation of small molecule APOBEC3A DNA Deaminase Inhibitors via a fluorescence-based single-stranded DNA deaminase assay. [Related pubchem assays (depositor defined):AID493011, AID493024]; type: functional
# DNA dC->dU-editing enzyme APOBEC-3A, sequence (P31941 whole entry): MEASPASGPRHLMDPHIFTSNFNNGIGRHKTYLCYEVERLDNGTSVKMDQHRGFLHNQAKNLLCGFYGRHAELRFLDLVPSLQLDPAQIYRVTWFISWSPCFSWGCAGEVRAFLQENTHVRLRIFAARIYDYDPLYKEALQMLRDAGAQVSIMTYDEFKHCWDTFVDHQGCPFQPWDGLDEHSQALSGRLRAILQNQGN
# [18] = molecular target: Genome polyprotein (dengue virus type 2, UniProt P29990); experiment: flavivirus cap methylation enzyme inhibition – biochemical, confirmation dose response, primary screen (AID 588689); type: functional
# Genome polyprotein, sequence (P29990 2492-3391 limits assumed): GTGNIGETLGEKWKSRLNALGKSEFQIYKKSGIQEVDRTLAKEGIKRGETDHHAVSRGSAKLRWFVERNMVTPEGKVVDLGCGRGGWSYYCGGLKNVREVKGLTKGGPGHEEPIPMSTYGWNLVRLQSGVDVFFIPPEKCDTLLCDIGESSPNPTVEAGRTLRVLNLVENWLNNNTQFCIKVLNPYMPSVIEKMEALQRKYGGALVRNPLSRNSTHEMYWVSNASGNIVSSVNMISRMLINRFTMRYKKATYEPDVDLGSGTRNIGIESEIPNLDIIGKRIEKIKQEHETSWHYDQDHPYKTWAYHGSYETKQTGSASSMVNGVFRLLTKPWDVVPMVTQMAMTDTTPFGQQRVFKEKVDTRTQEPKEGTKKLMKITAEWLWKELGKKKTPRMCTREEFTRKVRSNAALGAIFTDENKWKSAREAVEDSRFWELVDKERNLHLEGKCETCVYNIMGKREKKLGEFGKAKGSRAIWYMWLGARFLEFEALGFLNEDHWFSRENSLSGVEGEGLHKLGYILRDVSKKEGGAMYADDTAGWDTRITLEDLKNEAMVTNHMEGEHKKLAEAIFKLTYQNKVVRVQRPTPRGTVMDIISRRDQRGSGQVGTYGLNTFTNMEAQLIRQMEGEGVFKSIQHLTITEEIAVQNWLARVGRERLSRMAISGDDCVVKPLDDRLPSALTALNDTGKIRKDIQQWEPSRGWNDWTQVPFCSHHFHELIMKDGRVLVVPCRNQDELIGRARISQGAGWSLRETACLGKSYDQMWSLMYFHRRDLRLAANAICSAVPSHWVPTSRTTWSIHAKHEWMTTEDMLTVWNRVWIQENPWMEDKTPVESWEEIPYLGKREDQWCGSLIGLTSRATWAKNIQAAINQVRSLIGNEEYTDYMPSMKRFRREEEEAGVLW
# [19] = molecular target: T5, Short transient receptor potential channel 4 (Mus musculus, UniProt Q9QUQ5); experiment: block of DAMGO-driven TRPC4 calcium entry – cell-based, HEK293 TRPC4/mu-opioid, Fluo-4 calcium, dose response (AID 434942); type: functional;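 further: potency of inhibitors blocking the TRPC4 calcium response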
# T5 sequence (Q9QUQ5 whole entry): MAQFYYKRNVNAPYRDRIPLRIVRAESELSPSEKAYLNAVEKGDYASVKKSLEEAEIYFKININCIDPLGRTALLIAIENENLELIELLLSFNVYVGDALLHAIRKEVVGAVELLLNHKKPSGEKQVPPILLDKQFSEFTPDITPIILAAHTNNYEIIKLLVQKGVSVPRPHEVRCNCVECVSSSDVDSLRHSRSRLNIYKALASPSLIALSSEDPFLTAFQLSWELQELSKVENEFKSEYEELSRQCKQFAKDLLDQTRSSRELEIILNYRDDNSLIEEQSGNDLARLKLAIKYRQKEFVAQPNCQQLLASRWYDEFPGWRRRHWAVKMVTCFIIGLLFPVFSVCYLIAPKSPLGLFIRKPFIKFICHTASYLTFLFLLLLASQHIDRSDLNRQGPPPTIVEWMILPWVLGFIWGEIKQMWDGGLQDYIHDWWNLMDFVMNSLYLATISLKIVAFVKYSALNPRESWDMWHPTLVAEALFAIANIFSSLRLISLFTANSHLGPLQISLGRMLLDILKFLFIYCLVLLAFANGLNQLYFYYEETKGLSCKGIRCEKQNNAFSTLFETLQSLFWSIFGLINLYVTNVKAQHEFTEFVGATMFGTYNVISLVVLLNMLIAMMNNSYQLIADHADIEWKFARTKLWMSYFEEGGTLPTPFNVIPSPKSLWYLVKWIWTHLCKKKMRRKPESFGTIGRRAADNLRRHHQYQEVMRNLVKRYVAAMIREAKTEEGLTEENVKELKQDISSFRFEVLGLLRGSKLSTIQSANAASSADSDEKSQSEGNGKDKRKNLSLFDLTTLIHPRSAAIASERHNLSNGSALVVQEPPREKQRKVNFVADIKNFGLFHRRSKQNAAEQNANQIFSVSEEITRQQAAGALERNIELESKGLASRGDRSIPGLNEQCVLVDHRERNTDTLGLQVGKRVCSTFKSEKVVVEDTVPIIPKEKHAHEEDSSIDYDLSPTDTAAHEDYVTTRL
# [20] = viability of PTEN-deleted HCT116 cells – cell-based, HCT116 PTEN knockout, dose response (AID 1047); type: functional;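 further: HCT116 colon tumor cells with PTEN knocked out; cells exposed to compound for 60 hours before readout; potency for loss of cell viability measured by luminescence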
# [21] = viability of HCT116 lacking mutant beta-catenin – cell-based, human colon tumor, dose response (AID 1045); type: functional;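 further: HCT116 colon tumor cells with beta catenin knocked out; cells exposed to compound for 60 hours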
# [22] = Trypanosoma cruzi growth suppression in host cells – NIH3T3 host cells, beta-gal luminescence, confirmation (AID 2044); type: functional, cell-based;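 further: intracellular parasites grown in NIH/3T3 mouse fibroblasts as host cells; luminescent beta-galactosidase reporter signal from transgenic T. cruzi replicating inside host cells; inhibitors lower the luminescence signal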
# [23] = NIH3T3 cell viability loss – ATP luminescence, mouse fibroblasts, counter-screen, dose response (AID 2010); type: functional, cell-based;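 further: cells exposed to compound for about 90 hours before reading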
# [24] = molecular target: Cytochrome P450 2C19 (Homo sapiens, UniProt P33261); experiment: Cytochrome panel assay with activity outcomes. Panel member name: p450-cyp2c19 Compounds with AC50 equal or less than 10 uM are considered active; type: functional; conditions: read-out: AC50
# [25] = molecular target: Cytochrome P450 3A4 (Homo sapiens, UniProt P08684);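 further: CYP3A4 tested as one member of a cytochrome P450 panel screen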
structure (smiles),measurement,setting,value
C=CCOc1ccc(/C=N/O)cc1Cl,IC50,[1],> 100 µM (active)
COc1ccc(NC(C)=O)cc1NC(=O)CN1CCN(C2c3ccccc3-c3ccccc32)CC1,EC50,[2],> 120 µM (not active)
same,EC50,[3],> 120 µM (not active)
same,EC50,[4],14.7 µM (active)
same,CC50,[5],19.3 µM (active)
CC(C)OCCCNc1[nH]cnc2c3ccccc3nc1-2,AC50,[6],2.87 µM (active)
same,AC50,[7],5.7 µM (active)
CCn1cc(C(=O)O)c(=O)c2cc(F)c(N3CCN(C)CC3)cc21 [PEFLOXACIN MESYLATE],AC50,[8],1.83 µM (active)
COc1ccc(N=C2C(=O)Nc3c(C)cccc32)cc1,IC50,[1],> 100 µM (active)
O=[N+]([O-])c1cccc(OCCN2CCC(Cc3ccccc3)CC2)c1,IC50,[9],5.3 µM (active)
same,IC50,[10],4.72 µM (active)
Cn1nc(C(=O)Nc2ccc(S(=O)(=O)N3CCCCC3)cc2)c2ccccc2c1=O,IC50,[11],> 50 µM (not active)
O=[N+]([O-])c1ccc([CH+][N-]NC(=S)N[N-][CH+]c2ccc([N+](=O)[O-])cc2)cc1,IC50,[12],4.17 µM (active)
COc1ccc(/N=C/c2c(O)oc3ccccc3c2=O)cc1,IC50,[1],> 100 µM (active)
Cc1cc(=O)c2ccccc2[nH]1,AC50,[13],25.1 µM (inconclusive)
same,AC50,[14],inconclusive
CC/N=C1\S/C(=C\c2cn(C(C)=O)nc2-c2ccccc2)C(=O)N1CC,CC50,[5],24.8 µM (active)
CN(CC(=O)Nc1ccc(N2CCOCC2)cc1)CC(=O)Nc1ccc(N2CCOCC2)cc1,IC50,[11],0.655 µM (not active)
Cc1cc(Cl)ccc1OCCCC(=O)N1CCN(C)CC1,AC50,[13],15.8 µM (inconclusive)
same,AC50,[15],14.1 µM (inconclusive)
same,AC50,[14],inconclusive
Cc1cc(C)nc(N=C(N)Nc2ccc(S(=O)(=O)O)cc2)n1,IC50,[11],< 0.4 µM (not active)
O=C(NCCc1ccccc1)/C(=C\c1cccc([N+](=O)[O-])c1)NC(=O)c1ccco1,IC50,[9],3.04 µM (active)
same,IC50,[10],4.22 µM (active)
O=C(/C=C/c1ccco1)OCC(=O)N1CCCCC1,IC50,[12],5.75 µM (active)
same,IC50,[16],35.9 µM (active)
same,IC50,[17],19.5 µM (active)
O=C1/C(=C/c2ccc(F)cc2)SC(=S)N1NS(=O)(=O)c1ccccc1,IC50,[18],36.7 µM (active)
O=C(Nc1ccc(-c2nc3ncccc3o2)cc1)c1ccco1,AC50,[8],30.5 µM (active)
COc1ccc(C(=O)N(C)c2c(C)n(C)n(-c3ccccc3)c2=O)cc1OC,IC50,[11],18.1 µM (not active)
CSc1ccccc1NC(=O)CN(C)CC(=O)c1[nH]c(C)c(C(C)=O)c1C,IC50,[16],18.9 µM (active)
same,IC50,[17],6.83 µM (active)
CCCC(=O)Nc1ccc(Cl)c(NC(=S)NC(=O)c2cc3ccccc3o2)c1,IC50,[11],> 50 µM (not active)
COc1ccc(CCNCC(O)COc2c(C)cccc2C)cc1OC (configuration not stated),AC50,[8],> 150 µM (inactive)
O=C1/C(=C/c2ccccc2Cl)SC(=S)N1CCCC(=O)N(CCO)c1ccccc1,EC50,[19],0.473 µM (active)
same,IC50,[9],14.2 µM (active)
same,IC50,[10],9.91 µM (active)
COc1cccc(C2C3=C(O)CC(C)(C)CC3=NC(C)=C2C(=O)Nc2nc3ccccc3s2)c1OC (configuration not stated),IC50,[1],> 100 µM (active)
C#CCOc1c(Br)cc(/C=C2/C(=O)ON=C2C)cc1OCC,IC50,[18],84.7 µM (active)
COc1cc2c3c(c1)-c1c(sn(-c4cc(OC)ccc4OC)c1=S)C(C)(C)N3C(=O)C2=O,IC50,[18],61.9 µM (active)
same,EC50,[20],42.3 µM (active)
same,EC50,[21],51 µM (active)
CC(C)(C)C1CCC(OC(=O)C[N+]2(C)CCCC2)CC1 (configuration not stated),IC50,[16],3.36 µM (active)
same,IC50,[17],2.96 µM (active)
COCCOc1ccc(C(F)(F)F)cc1NC(=O)Cc1ccc(S(=O)(=O)N2CCOCC2)s1,IC50,[9],6.76 µM (active)
same,IC50,[10],8.23 µM (active)
CC(OC(=O)c1ccc(Cl)c([N+](=O)[O-])c1)C(=O)N1CCN(Cc2ccccc2)CC1 (configuration not stated),IC50,[9],6.15 µM (active)
same,IC50,[10],3.36 µM (active)
CCC(C)N1C(=O)/C(=C\c2cc3c4c(c2)CCCN4CCC3)C(=O)NC1=S (configuration not stated),CC50,[5],> 25 µM (active)
CCOC(=O)CNC(=O)c1ccccc1,AC50,[8],21 µM (active)
CC[n+]1ccc(/C=C/c2c[nH]c3ccccc23)cc1,AC50,[6],5.79 µM (active)
same,EC50,[22],0.839 µM (active)
same,EC50,[23],> 60 µM (not active)
same,IC50,[16],12.3 µM (active)
same,IC50,[17],5.16 µM (active)
CCn1c(C)nc2cc(S(=O)(=O)C(F)(F)C(F)C(F)(F)F)ccc21 (configuration not stated),IC50,[11],3.91 µM (active)
Cn1nc(C(=O)Nc2ccc(-n3cnnn3)cc2)c2ccccc2c1=O,IC50,[12],25.7 µM (active)
O=C(Cc1ccccc1)Nc1ccccc1N1CCOCC1,AC50,[24],8.91 µM (inconclusive)
same,AC50,[13],6.31 µM (inconclusive)
same,AC50,[25],6.31 µM (inconclusive)
same,AC50,[14],inconclusive
Cc1nc(NC(=O)/C=C/c2ccccc2)sc1C(=O)N(C)C,AC50,[8],43.6 µM (active)
